Source: patent US20180363025A1, “T[…] FOR GUT INFLAMMATION” (William Marsh Rice University, priority 2015, published 2018)
Entries after “also recorded” stand apart in the source; their conditions may differ.

How the values were obtained:
Shal_3128/9 [1] = assay: Ligand competition assay, sensor response to thiosulfate in presence of other TEAs; type: cell-based, Shewanella halifaxensis; details: 5 mM thiosulfate plus 10 mM other TEA; FIG. 3E
Protocol: FIG. 3A-F. Characterization of the thiosulfate-sensing proteins: Shal_3128/9. (3A) The S. halifaxensis genomic region containing the thiosulfate reductase operon (Shal_3125-7) and neighboring thiosulfate-sensing TCS (Shal_3128/9). (3B) Plasmid design of the inducible thiosulfate sensor. […] (3D) Selectivity of Shal_3128/9 to thiosulfate over other terminal electron acceptors. All TEAs were tested at 10 mM concentration. (3E) Ligand competition assay. Sensor performance at 5 mM thiosulfate was tested in the presence of 10 mM other TEAs, and a decrease in response indicates inhibition by the added ligand. (3F) Inhibition curve of tetrathionate (filled circles) and sulfite (open squares) in the presence of 5 mM thiosulfate.

Shal_3128/9 [2] = details: TEAs tested at 10 mM; E. coli BW28357 expressing Shal_3128/9; FIG. 3D
Excerpt: The sensor kinase was expressed from a p15A medium-copy expression vector with spectinomycin resistance. Production of Shal_3128 was driven by the Ptac promoter and a designed synthetic RBS (predicted strength 1,000), which was induced by IPTG and regulated by constitutively expressed LacI. Transcription of Shal_3128, LacI, and Spec^R was terminated by the B0015, T1, and T0 terminators, respectively.
The response regulator and rewired output promoter driving GFP production were on a ColE1 high-copy expression vector with chloramphenicol resistance. Shal_3129 production was regulated by constitutively expressed TetR at the PLTetO-1 aTc-inducible promoter with a synthetic RBS (predicted strength 1,000). […] Production of sfGFP was regulated by output of the PShal_3127 promoter using the B0034 RBS, which provides a visual readout of Shal_3128/9 activity. Transcription of Shal_3129, sfGFP, TetR, and Cm^R was terminated by the B0015, B0015, T1, and T0 terminators, respectively.
Both plasmids were transformed into the BW28357 E. coli strain, available from The Coli Genetic Stock Center (CGSC#: 7991, F−, Δ(araD-araB)567, ΔlacZ4787(TrnB-3); lambda^−, Δ(rhaD-rhaB)568, hsdR514).

thiosulfate sensor = assay: Effect of DSS on GFP output of optimized thiosulfate sensor; type: cell-based, Shewanella halifaxensis; details: 3% DSS; optimized constitutive sensor in E. coli Nissle; FIG. 4D
Chain of thiosulfate sensor (as listed by the source): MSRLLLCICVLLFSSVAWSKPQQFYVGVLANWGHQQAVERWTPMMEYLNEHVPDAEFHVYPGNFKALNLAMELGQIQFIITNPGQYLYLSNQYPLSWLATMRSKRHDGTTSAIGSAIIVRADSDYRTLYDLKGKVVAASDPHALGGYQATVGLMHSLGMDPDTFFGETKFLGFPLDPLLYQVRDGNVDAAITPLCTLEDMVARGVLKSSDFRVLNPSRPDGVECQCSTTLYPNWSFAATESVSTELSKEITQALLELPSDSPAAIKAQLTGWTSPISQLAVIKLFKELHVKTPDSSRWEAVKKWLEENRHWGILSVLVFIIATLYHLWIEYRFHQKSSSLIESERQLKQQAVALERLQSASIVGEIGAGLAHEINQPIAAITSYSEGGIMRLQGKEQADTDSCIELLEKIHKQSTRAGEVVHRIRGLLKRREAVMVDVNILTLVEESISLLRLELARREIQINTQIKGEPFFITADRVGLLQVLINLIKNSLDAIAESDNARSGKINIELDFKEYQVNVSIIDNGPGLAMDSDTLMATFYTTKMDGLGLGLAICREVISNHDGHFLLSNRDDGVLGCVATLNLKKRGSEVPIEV
Chain of thiosulfate sensor (as listed by the source partner): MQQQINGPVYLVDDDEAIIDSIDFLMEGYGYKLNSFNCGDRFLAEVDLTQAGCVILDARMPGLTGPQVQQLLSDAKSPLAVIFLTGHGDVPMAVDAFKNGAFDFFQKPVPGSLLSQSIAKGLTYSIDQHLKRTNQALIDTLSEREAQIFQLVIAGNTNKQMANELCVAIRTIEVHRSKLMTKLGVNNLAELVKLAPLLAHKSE
Excerpt: FIG. 4A-D. Sensor optimization for thiosulfate detection in the gut. (4A) Changes made between the initial characterization constructs and in vivo optimized sensor. (4B) Layout of sensor components on the final two plasmid expression system. (4C) Normalized dose-response behavior of thiosulfate sensors. Shown is the original, inducible, BW28357 strain grown aerobically (closed circles), and the selected constitutive promoter strain in Nissle grown aerobically (closed squares) and anaerobically (open squares). A shift in half-maximal response indicates sensitivity to oxygen. (4D) Dynamic range of optimized thiosulfate sensors. GFP output is shown in the absence (grey bars) and presence of 5 mM thiosulfate or 1 mM tetrathionate, respectively (black bars).

Molecule | competition (inhibition of thiosulfate response) (Shal_3128/9 [1]) | also measured
O=S(=O)(O)SSS(=O)(=O)O [tetrathionate] | modest level of competition | 
O=S(O)(O)=S [thiosulfate] |  | stimulation of production of reporter protein GFP (Shal_3128/9 [2]): effectively stimulated production of reporter protein GFP
O=S(O)O [sulfite] | modest level of competition | 
Dextran Sodium Sulfate [DSS] |  | activation or inhibition of sensor signaling (thiosulfate sensor): does not activate or inhibit signaling; also recorded: does not appear to be sensitive
